Experiments:
Jurkat cells [1] = test: Annexin V-FITC / PI fluorescence-based flow cytometry assay (apoptosis, necrosis)
Description: (§1) Cell apoptosis and necrosis were determined by imaging flow cytometry after labelling of the cells with FITC and PI. Sample preparation was carried out according to the Dead Cell Apoptosis Kit instructions. After incubation for 15 min in the dark at room temperature samples were kept on wet ice until analysis. After adjusting the excitation power of the FlowSight imaging flow cytometer to 4 mW, the same instrument settings as described in for the calcein-AM assay above was used. Brightfield as well as fluorescence images in channels 02 (532/55 nm) for FITC and channel 4 (610/30 nm) for PI were recorded. Appropriate morphological filters based on mean intensity, area, aspect ratio and modulation from channel 09 were applied to discriminate between single cells and cell aggregates or debris particles. Once single cells were selected based on brightfield images, mean intensity values from channel 02 (fluorescence) were plotted against the particle area (erode mask) where the positively stained cells were classified as viable.
For selection of necrotic cells, two separate methods were used to induce cell necrosis. […] Images of debris particles were manually selected from measured suspensions of cells submitted to vortexing for approximately 2 min or two freeze-thaw cycles (−140° C.-37° C.).

Jurkat cells [2] = test: in vitro
Excerpt: (§2) Generation of particle images for population discrimination. The CNN was retrained on manually labelled images (4,000-4,500) of each of the three populations: viable cells, necrotic cells and debris particles. […] For selection of necrotic cells, two separate methods were used to induce cell necrosis. […] In order to further define image populations of viable and necrotic cells for the network fine-tuning, morphological parameters, such as aspect ratio, circle fit, convexity, sigma intensity and symmetry, of the two populations were used. Only particles (cells) of morphological parameter values falling between the 10th and 90th percentile of the manually selected population as viable and necrotic cells were taken for input to the training of the model. Images of debris particles were manually selected from measured suspensions of cells submitted to vortexing for approximately 2 min or two freeze-thaw cycles (−140° C.-37° C.).
as §1

Jurkat cells [3] = test: FIM-CNN (FlowCam) cell counts and viability after forced degradation; type: cell-based
Description: Freeze-thaw stress. […] Further, five 1-ml aliquots were prepared in 1.8-ml Nalgene cryovials, which were submitted to freezing at −18° C. for 3 hours. This amount of time was sufficient for complete freezing of the aliquots. Prior to analysis, the samples were thawed for 2 min at 37° C., pooled and washed with fresh RPMI medium. Control samples were stored at 20° C. for 3 hours and were otherwise treated identically as the freeze-thawed samples. Shaking stress. […] The cryovials were submitted to shaking by constant horizontal agitation at 185 rpm at 25° C. by using an IC 4000 shaker (IKA, Germany). Analysis of cell suspensions of pooled cell aliquots was performed following 3 hours of shaking. Control samples were stored statically and protected from light at 25° C. in cryovials, and subsequently pooled. Flow imaging microscopy (FlowCam, FIM). Cells (viable and necrotic) and debris particles were quantified by using a FlowCam 8100 (Fluid Imaging Technologies, Scarborough, USA) equipped with a 50-μflow cell. […] In total, a sample volume of 140 μL was measured with an efficiency of approximately 63% (i.e., the imaged sample volume was ca. 87 μL). Particles imaged within the flow cell were detected with intensity thresholds of 12 for light and dark pixels. […] Collected images were not sorted by using any morphological filters and samples were measured in triplicate, unless otherwise stated. Image analysis using convolutional neural networks. Particle images captured by using FlowCam were analyzed by using convolutional neural networks (CNN). […] Briefly, the VGG-19 network using rectified linear unit activation functions, punctuated with max-pooling and dropout layers, was pre-trained on the ImageNet dataset (http://image-netorg). The re-training of the network was performed with the first ten layers frozen in order to save computation time and improve accuracy of the model by preserving its pre-learned feature recognition capabilities. For fine-tuning the dataset was split into an 8:1:1 ratio for training, validation and testing, respectively. […]

[4] = calcein-AM assay of cell viability (imaging flow cytometry); type: cell-based; settings: human, Jurkat cells; irrespective of DMSO content (2.5%, 5%, 10% v/v) and time point (T0, freeze-thaw, control)
Description: Freeze-thaw stress. DMSO, cooled on wet ice, was slowly added to cell suspensions (placed on wet ice) to reach a target concentration 1%, 2.5%, 5% and 10% (v/v) at a cell concentration of 1×10^6 cells/ml. Further, five 1-ml aliquots were prepared in 1.8-ml Nalgene cryovials, which were submitted to freezing at −18° C. for 3 hours. This amount of time was sufficient for complete freezing of the aliquots. Prior to analysis, the samples were thawed for 2 min at 37° C., pooled and washed with fresh RPMI medium. Control samples were stored at 20° C. for 3 hours and were otherwise treated identically as the freeze-thawed samples.
Imaging flow cytometry. To assess cell viability based on cell metabolism, imaging flow cytometry was used in combination with the membrane-permeable dye calcein-AM (calcein-AM assay), at a final concentration of 6.3 nM in the sample to be analyzed. […] Subsequently, samples were analyzed by using an Amnis FlowSight imaging flow cytometer (Luminex, Seattle, USA) and data was analyzed using IDEAS 6.2.183 (Luminex, Seattle, USA) image analysis software. […] The side scatter laser was set to 10 mW and the 488 nm fluorescence excitation laser was set to 12 mW. Images of the calcein-AM stained cells were recorded in channel 02 (532/55 nm). […]

in vitro = settings: human
Excerpt: as §2, §1

[5] = cell suspensions frozen with 2.5% (v/v) DMSO
[6] = staurosporin 1 μM to 500.000 cells/mL, Annexin V-FITC & PI double staining

SMILES: C[S+](C)[O-] [DMSO, dimethyl sulfoxide]
- increase in apoptotic cell content (Jurkat cells [1]; human, 3 h): ~2 fold
- toxic effects of DMSO (PI assay) (Jurkat cells [2]): loss of cell viability
- drop in cell viability (PI assay) (Jurkat cells [2]; 5% and 10% (v/v) DMSO, freeze-thawed and control samples compared to T0): ca. 10%
- losses in viability (PI assay) (Jurkat cells [2]; [5]): ca. 20%
- reduction of cell counts (Jurkat cells [3]; 0% and 1% (v/v) DMSO, one freeze-thaw cycle (−18° C. 3 hours, thawing 2 min at 37° C.)): > 98%
- losses in viability (FIM-CNN assay) (Jurkat cells [3]; [5]): ca. 20%
- toxic effects of DMSO (FIM) (Jurkat cells [3]; exposure of 3 hours at RT, 10% (v/v)): loss of cell viability
- viability [4]: 85 to 90%

SMILES: CN[C@@H]1C[C@H]2O[C@@](C)([C@@H]1OC)n1c3ccccc3c3c4c(c5c6ccccc6n2c5c31)C(=O)NC4 [staurosporin]
- necrotic cells (Jurkat cells [1]; [6]): around 6%
- viable cells (Jurkat cells [1]; [6]): ~ 2%

SMILES: CCO [ethanol, reference compound]
- viability at 90 min, 10 % (v/v) (in vitro): 12.8%
